Patent US20170190671A1, “BIS(ARYL)CATECHOL DERIVATIVES AS HERBICIDES” (E I DU PONT DE NEMOURS AND COMPANY, priority 2014, published 2017)

Columns and labels:
corn (Zea mays) = assay: Test C preemergence; type: in vivo; conditions: Zea mays, pre-emergence, 336 h, preemergence, scale 0 to 100
In short: (§1)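 Greenhouse test, preemergence on seeded soil or postemergence on 1- to 4-leaf plants. Response is a visual 0-100 rating versus controls, taken 13-15 days after treatment.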

[1] = test system: giant foxtail (Setaria faberii); assay: Test C preemergence; type: in vivo; conditions: Setaria faberi, pre-emergence, 336 h, preemergence, scale 0 to 100, read-out: Plant response rating, Foxtail, Giant
In short: as §1

[2] = test system: Italian ryegrass (Lolium multiflorum); assay: Test C preemergence; type: in vivo; conditions: Lolium multiflorum, pre-emergence, 336 h, preemergence, scale 0 to 100, read-out: Plant response rating, Ryegrass, Italian
In short: as §1

[3] = test system: blackgrass (Alopecurus myosuroides); assay: Test C preemergence; type: in vivo; conditions: Alopecurus myosuroides, pre-emergence, 336 h, preemergence, scale 0 to 100, read-out: Plant response rating, Blackgrass
In short: as §1

[4] = test system: winter wheat (Triticum aestivum); assay: Test C preemergence; type: in vivo; conditions: Triticum aestivum, pre-emergence, 336 h, preemergence, scale 0 to 100, read-out: Plant response rating, Wheat
In short: as §1

[5] = test system: ragweed (common ragweed, Ambrosia elatior); assay: Test C preemergence; type: in vivo; conditions: Ambrosia artemisiifolia, pre-emergence, 336 h, preemergence, scale 0 to 100, read-out: Plant response rating, Ragweed
In short: as §1

soybean (Glycine max) = assay: Test C preemergence; type: in vivo; conditions: Glycine max, pre-emergence, preemergence, scale 0 to 100, read-out: Plant response rating, Soybean
In short: as §1

[6] = test system: morningglory (Ipomoea coccinea); assay: Test C preemergence; type: in vivo; conditions: Ipomoea, pre-emergence, 336 h, preemergence, scale 0 to 100, read-out: Plant response rating, Morningglory
In short: as §1

[7] = test system: large (Lg) crabgrass (Digitaria sanguinalis); assay: Test C preemergence; type: in vivo; conditions: Digitaria sanguinalis, pre-emergence, 336 h, preemergence, scale 0 to 100, read-out: Plant response rating, Crabgrass, Large
In short: as §1

[8] = test system: barnyardgrass (Echinochloa crus-galli); assay: Test C preemergence; type: in vivo; conditions: Echinochloa crus-galli, pre-emergence, preemergence, scale 0 to 100, read-out: Plant response rating, Barnyardgrass
In short: as §1

[9] = test system: pigweed (Amaranthus retroflexus); assay: Test C preemergence; type: in vivo; conditions: Amaranthus retroflexus, pre-emergence, 336 h, preemergence, scale 0 to 100, read-out: Plant response rating, Pigweed
In short: as §1

[10] = test system: velvetleaf (Abutilon theophrasti); assay: Test C preemergence; type: in vivo; conditions: Abutilon theophrasti, pre-emergence, preemergence, scale 0 to 100, read-out: Plant response rating, Velvetleaf
In short: as §1

[11] = test system: oilseed rape (Brassica napus); assay: Test C preemergence; type: in vivo; conditions: Brassica napus, pre-emergence, preemergence, scale 0 to 100, read-out: Plant response rating, Oilseed Rape
In short: as §1

[12] = test system: johnsongrass (Sorghum halepense); assay: Test C preemergence; type: in vivo; conditions: Sorghum halepense, pre-emergence, 336 h, preemergence, scale 0 to 100, read-out: Plant response rating, Johnsongrass
In short: as §1

[13] = test system: waterhemp (common waterhemp, Amaranthus rudis); assay: Test C preemergence; type: in vivo; conditions: Amaranthus tuberculatus, pre-emergence, preemergence, scale 0 to 100, read-out: Plant response rating, Waterhemp
In short: as §1

wild oat (Avena fatua) = assay: Test C postemergence; type: in vivo; conditions: Avena fatua, post-emergence, Postemergence, scale 0 to 100, read-out: Plant response rating, Oat, Wild
In short: as §1

[14] = test system: yellow nutsedge (Cyperus esculentus); assay: Test C postemergence; type: in vivo; conditions: Cyperus, post-emergence, 336 h, Postemergence, scale 0 to 100, read-out: Plant response rating, Nutsedge, Yellow
In short: as §1

kochia (Kochia scoparia) = assay: Test C postemergence; type: in vivo; conditions: Bassia scoparia, post-emergence, Postemergence, scale 0 to 100, read-out: Plant response rating, Kochia
In short: as §1

[15] = test system: chickweed (common chickweed, Stellaria media); assay: Test C postemergence; type: in vivo; conditions: Stellaria media, post-emergence, Postemergence, scale 0 to 100, read-out: Plant response rating, Chickweed
In short: as §1

[16] = test system: galium (catchweed bedstraw, Galium aparine); assay: Test C postemergence; type: in vivo; conditions: Galium, post-emergence, 336 h, Postemergence, scale 0 to 100, read-out: Plant response rating, Galium
In short: as §1

[17] = test system: pigweed (Amaranthus retroflexus); assay: Test C postemergence; type: in vivo; conditions: Amaranthus retroflexus, post-emergence, 336 h, Postemergence, scale 0 to 100, read-out: Plant response rating, Pigweed
In short: as §1

[18] = test system: waterhemp (common waterhemp, Amaranthus rudis); assay: Test C postemergence; type: in vivo; conditions: Amaranthus tuberculatus, post-emergence, Postemergence, scale 0 to 100, read-out: Plant response rating, Waterhemp
In short: as §1

Compound `Clc1cnc(Oc2cccc(Cl)c2Oc2ncc(Br)cn2)nc1` [Compound 17, 5-bromo-2-[2-chloro-6-[(5-chloro-2-pyrimidinyl)oxy]phenoxy]pyrimidine] has a Corn plant response rating (crop injury, 0 = no effect, 100 = complete kill) at 31 g/ha (corn (Zea mays); 31 g ai/ha) of 0%, a Corn plant response rating (crop injury, 0 = no effect, 100 = complete kill) at 62 g/ha (corn (Zea mays); 62 g ai/ha) of 15% and a Corn plant response rating (crop injury, 0 = no effect, 100 = complete kill) at 125 g/ha (corn (Zea mays); 125 g ai/ha) of 55%. For the same compound, the pest or weed control at 31 g/ha ([1]; 31 g ai/ha) was 95%, the pest or weed control at 62 g/ha ([1]; 62 g ai/ha) was 100% and the pest or weed control at 125 g/ha ([1]; 125 g ai/ha) was 100%. For the same compound, the pest or weed control at 31 g/ha ([2]; 31 g ai/ha) was 20%, the pest or weed control at 62 g/ha ([2]; 62 g ai/ha) was 40% and the pest or weed control at 125 g/ha ([2]; 125 g ai/ha) was 90%. For the same compound, the pest or weed control at 250 g/ha ([2]; 250 g ai/ha) was 95%, the pest or weed control at 31 g/ha ([3]; 31 g ai/ha) was 60% and the pest or weed control at 62 g/ha ([3]; 62 g ai/ha) was 90%. It also gave a pest or weed control at 125 g/ha ([3]; 125 g ai/ha) of 95%, a plant injury at 31 g/ha ([4]; 31 g ai/ha) of 0% and a plant injury at 62 g/ha ([4]; 62 g ai/ha) of 45%. It also gave a plant injury at 125 g/ha ([4]; 125 g ai/ha) of 40%, a plant injury at 250 g/ha ([4]; 250 g ai/ha) of 85% and a pest or weed control at 31 g/ha ([5]; 31 g ai/ha) of 0%. The pest or weed control at 62 g/ha ([5]; 62 g ai/ha) was 25%, the pest or weed control at 125 g/ha ([5]; 125 g ai/ha) was 55% and the pest or weed control at 250 g/ha ([5]; 250 g ai/ha) was 85%. For the same compound, the plant injury at 31 g/ha (soybean (Glycine max); 31 g ai/ha) was 5%, the plant injury at 62 g/ha (soybean (Glycine max); 62 g ai/ha) was 20% and the plant injury at 125 g/ha (soybean (Glycine max); 125 g ai/ha) was 45%. It also gave a plant injury at 250 g/ha (soybean (Glycine max); 250 g ai/ha) of 70%, a pest or weed control at 31 g/ha ([6]; 31 g ai/ha) of 40% and a pest or weed control at 62 g/ha ([6]; 62 g ai/ha) of 60%. It also gave a pest or weed control at 125 g/ha ([6]; 125 g ai/ha) of 98%, a pest or weed control at 31 g/ha ([7]; 31 g ai/ha) of 100% and a pest or weed control at 62 g/ha ([7]; 62 g ai/ha) of 100%. It also gave a pest or weed control at 125 g/ha ([7]; 125 g ai/ha) of 100%, a pest or weed control at 31 g/ha ([8]; 31 g ai/ha) of 20% and a pest or weed control at 62 g/ha ([8]; 62 g ai/ha) of 85%. It also gave a pest or weed control at 125 g/ha ([8]; 125 g ai/ha) of 100%, a pest or weed control at 250 g/ha ([8]; 250 g ai/ha) of 100% and a pest or weed control at 31 g/ha ([9]; 31 g ai/ha) of 100%. The pest or weed control at 62 g/ha ([9]; 62 g ai/ha) was 100%, the pest or weed control at 125 g/ha ([9]; 125 g ai/ha) was 100% and the pest or weed control at 31 g/ha ([10]; 31 g ai/ha) was 65%. For the same compound, the pest or weed control at 62 g/ha ([10]; 62 g ai/ha) was 95%, the pest or weed control at 125 g/ha ([10]; 125 g ai/ha) was 100% and the pest or weed control at 250 g/ha ([10]; 250 g ai/ha) was 100%. The plant injury at 31 g/ha ([11]; 31 g ai/ha) was 85%, the plant injury at 62 g/ha ([11]; 62 g ai/ha) was 90% and the plant injury at 125 g/ha ([11]; 125 g ai/ha) was 100%. The plant injury at 250 g/ha ([11]; 250 g ai/ha) was 98%, the pest or weed control at 31 g/ha ([12]; 31 g ai/ha) was 10% and the pest or weed control at 62 g/ha ([12]; 62 g ai/ha) was 50%. It also gave a pest or weed control at 125 g/ha ([12]; 125 g ai/ha) of 85%, a pest or weed control at 31 g/ha ([13]; 31 g ai/ha) of 100% and a pest or weed control at 62 g/ha ([13]; 62 g ai/ha) of 100%. For the same compound, the pest or weed control at 125 g/ha ([13]; 125 g ai/ha) was 100%, the pest or weed control at 250 g/ha ([13]; 250 g ai/ha) was 100% and the pest or weed control at 31 g/ha (wild oat (Avena fatua); 31 g ai/ha) was 0%. For the same compound, the pest or weed control at 62 g/ha (wild oat (Avena fatua); 62 g ai/ha) was 0%, the pest or weed control at 125 g/ha (wild oat (Avena fatua); 125 g ai/ha) was 5% and the pest or weed control at 250 g/ha (wild oat (Avena fatua); 250 g ai/ha) was 15%. For the same compound, the pest or weed control at 31 g/ha ([14]; 31 g ai/ha) was 5%, the pest or weed control at 62 g/ha ([14]; 62 g ai/ha) was 5% and the pest or weed control at 125 g/ha ([14]; 125 g ai/ha) was 5%. The pest or weed control at 250 g/ha ([14]; 250 g ai/ha) was 20%, the pest or weed control at 31 g/ha (kochia (Kochia scoparia); 31 g ai/ha) was 90% and the pest or weed control at 62 g/ha (kochia (Kochia scoparia); 62 g ai/ha) was 90%. It also gave a pest or weed control at 125 g/ha (kochia (Kochia scoparia); 125 g ai/ha) of 95%, a pest or weed control at 250 g/ha (kochia (Kochia scoparia); 250 g ai/ha) of 95% and a pest or weed control at 31 g/ha ([15]; 31 g ai/ha) of 40%. The pest or weed control at 62 g/ha ([15]; 62 g ai/ha) was 70%, the pest or weed control at 125 g/ha ([15]; 125 g ai/ha) was 60% and the pest or weed control at 250 g/ha ([15]; 250 g ai/ha) was 85%. It also gave a pest or weed control at 31 g/ha ([16]; 31 g ai/ha) of 70%, a pest or weed control at 62 g/ha ([16]; 62 g ai/ha) of 80% and a pest or weed control at 125 g/ha ([16]; 125 g ai/ha) of 90%. The pest or weed control at 250 g/ha ([16]; 250 g ai/ha) was 95%, the pest or weed control at 31 g/ha ([17]; 31 g ai/ha) was 90% and the pest or weed control at 62 g/ha ([17]; 62 g ai/ha) was 95%. The pest or weed control at 125 g/ha ([17]; 125 g ai/ha) was 98%, the pest or weed control at 250 g/ha ([17]; 250 g ai/ha) was 98% and the pest or weed control at 31 g/ha ([18]; 31 g ai/ha) was 90%. The pest or weed control at 62 g/ha ([18]; 62 g ai/ha) was 95%, the pest or weed control at 125 g/ha ([18]; 125 g ai/ha) was 95% and the pest or weed control at 250 g/ha ([18]; 250 g ai/ha) was 98%. The melting point was 166 to 169 °C.
